Like-named read-outs stand apart in the source and are kept apart here.
Assays:
GST-PPARG-LBD = GST-PPARG-LBD (Homo sapiens (Human), UniProt P37231); experiment: Lanthascreen PPARG competitive binding assay (Invitrogen, TR-FRET); conditions: NA = not active, inc = incomplete curve, read-out: IC50 (nM) Lantha
Summary of the method: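 Values are fold change in 520 nm/490 nm FRET ratio relative to a 2% DMSO no-ligand control, excitation 340 nm. Compound dilutions starting at 10 μM competed against 5 nM Fluormone Pan-PPAR Green for GST-PPARG-LBD bound by 5 nM Tb anti-GST antibody. Incubation 2 h in the dark in assay buffer C, triplicate wells.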

[1] = target: Gal-4-PPAR (human PPAR LBD fused to GAL4 DNA-binding domain) (Homo sapiens (Human), UniProt P37231); experiment: GAL4-PPARG LBD / UAS-luciferase transactivation assay in HEK 293T cells; type: cell-based; conditions: for activation at 10 µM: HEK-293T, 18 h, read-out: % transactivation at 10 μM (GAL4)
Gal-4-PPAR (human PPAR LBD fused to GAL4 DNA-binding domain), sequence (P37231 238-503): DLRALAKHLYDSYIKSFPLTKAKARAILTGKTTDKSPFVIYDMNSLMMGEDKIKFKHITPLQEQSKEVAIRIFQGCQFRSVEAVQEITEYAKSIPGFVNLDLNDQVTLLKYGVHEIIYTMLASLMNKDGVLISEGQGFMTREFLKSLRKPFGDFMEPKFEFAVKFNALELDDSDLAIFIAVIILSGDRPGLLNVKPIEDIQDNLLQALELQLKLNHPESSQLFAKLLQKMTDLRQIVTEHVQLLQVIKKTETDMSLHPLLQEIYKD

[2] = Lanthascreen competitive binding
[3] = GAL4 transactivation, HEK 293T cells, NA = not active, read-out: EC50 (nM) GAL4
[4] = Lanthascreen PPARG competitive binding
[5] = GAL4 transactivation, read-out: EC50 (nM) GAL4

GST-PPARG-LBD, sequence (P37231 238-503): as above

Work on `Cc1c(C)n(Cc2ccc(-c3ccccc3C(=O)O)cc2)c2ccc(C(=O)N[C@@H](C)c3cc(C4CC4)ccn3)cc12` [Example 266, (S)-4′-((5-((1-(4-cyclopropylpyridin-2-yl)ethyl)carbamoyl)-2,3-dimethyl-1H-indol-1-yl)methyl)-[1,1′-biphenyl]-2-carboxylic acid] yielded an IC50 (GST-PPARG-LBD; [2]) of 8 nM, an EC50 [1, 3] of 588 nM and an activation at 10 µM [1] of 25%.
`Cc1c(C)n(Cc2ccc(-c3ccccc3-c3n[nH]c(=O)o3)cc2)c2ccc(C(=O)N[C@@H](C)c3cccc(C(C)C)c3)cc12` [Example 245, (S)—N-(1-(3-isopropylphenyl)ethyl)-2,3-dimethyl-1-((2′-(5-oxo-4,5-dihydro-1,3,4-oxadiazol-2-yl)-[1,1′-biphenyl]-4-yl)methyl)-1H-indole-5-carboxamide] was tested, and the IC50 (GST-PPARG-LBD; [2]) was 7 nM, the EC50 [1] was 454 nM and the activation at 10 µM [1] was 10%.
With `Cc1c(C)n(Cc2ccc(-c3ccccc3C(=O)O)cc2)c2ccc(C(=O)NCc3ccc(Cl)cc3C(F)(F)F)cc12` [Example 165, 4′-((5-((4-chloro-2-(trifluoromethyl)benzyl)carbamoyl)-2,3-dimethyl-1H-indol-1-yl)methyl)-[1,1′-biphenyl]-2-carboxylic acid] the IC50 (GST-PPARG-LBD; [2]) was 2 nM, the EC50 [1, 3] was 507 nM and the activation at 10 µM [1] was 15%.
Work on `Cc1c(C)n(Cc2ccc(-c3ccccc3C(=O)O)cc2)c2ccc(C(=O)N[C@H](C)c3cccc(Br)c3)cc12` [Example 296, (R)-4′-((5-((1-(3-Bromophenyl)ethyl)carbamoyl)-2,3-dimethyl-1H-indol-1-yl)methyl)-[1,1′-biphenyl]-2-carboxylic acid] yielded an IC50 (GST-PPARG-LBD; [4]) of less than 1 nM, an EC50 [1, 5] of 69 nM and an activation at 10 µM [1] of 35%.
Compound `Cc1ccc(F)c([C@H](C)NC(=O)c2ccc3c(c2)c(C)c(C)n3Cc2ccc(-c3ccccc3C(=O)O)cc2)c1` [Example 211, (S)-4′-((5-((1-(2-fluoro-5-methylphenyl)ethyl)carbamoyl)-2,3-dimethyl-1H-indol-1-yl)methyl)-[1,1′-biphenyl]-2-carboxylic acid] has an IC50 (GST-PPARG-LBD; [2]) of 6 nM, an EC50 [1, 3] of 251 nM and an activation at 10 µM [1] of 20%.
Compound `Cc1c(C)n(Cc2ccc(-c3ccccc3C(=O)O)cc2)c2ccc(C(=O)N[C@@H](C)c3ccc(C(F)(F)F)cc3C(F)(F)F)cc12` [Example 210, (S)-4′-((5-((1-(2,4-bis(trifluoromethyl)phenyl)ethyl)carbamoyl)-2,3-dimethyl-1H-indol-1-yl)methyl)-[1,1′-biphenyl]-2-carboxylic acid] has an IC50 (GST-PPARG-LBD; [2]) of 241 nM, an EC50 [1, 3] of 1290 nM and an activation at 10 µM [1] of 20%.
In the case of `Cc1c(C)n(Cc2ccc(-c3ccccc3C(=O)O)cc2)c2ccc(C(=O)N[C@H](C)c3cccc(Br)n3)cc12` [Example 271, (R)-4′-((5-(1-(6-bromopyridin-2-yl)ethylcarbamoyl)-2,3-dimethyl-1H-indol-1-yl)methyl)biphenyl-2-carboxylic acid], the IC50 (GST-PPARG-LBD; [2]) is reported as 2 nM, the EC50 [1, 3] is reported as 52 nM and the activation at 10 µM [1] is reported as 20%.
With `Cc1c(C)n(Cc2ccc(-c3ccccc3C(=O)O)cc2)c2ccc(C(=O)N[C@@H](C)[C@@H]3CCN(C(=O)OCc4ccccc4)C3)cc12` [Example 240, 4′-((5-(((S)-1-((R)-1-((benzyloxy)carbonyl)pyrrolidin-3-yl)ethyl)carbamoyl)-2,3-dimethyl-1H-indol-1-yl)methyl)-[1,1′-biphenyl]-2-carboxylic acid] the IC50 (GST-PPARG-LBD; [2]) was 58 nM, the EC50 [1, 3] was 1300 nM and the activation at 10 µM [1] was 25%.
Compound `Cc1c(C)n(Cc2ccc(-c3ccccc3C(N)=O)cc2)c2ccc(C(=O)N[C@@H](C)c3cccc(C(C)C)c3)cc12` [Example 315, (S)-1-((2′-Carbamoyl-[1,1′-biphenyl]-4-yl)methyl)-N-(1-(3-isopropylphenyl)ethyl)-2,3-dimethyl-1H-indole-5-carboxamide] has an IC50 (GST-PPARG-LBD; [4]) of 62 nM, an EC50 [1] of 137 nM and an activation at 10 µM [1] of 2%.
`Cc1c(C)n(Cc2ccc(-c3ccccc3C(=O)O)cc2)c2ccc(C(=O)N[C@@H](C)c3ccc(C4CC4)cn3)cc12` [Example 261, (S)-4′-((5-((1-(5-cyclopropylpyridin-2-yl)ethyl)carbamoyl)-2,3-dimethyl-1H-indol-1-yl)methyl)-[1,1′-biphenyl]-2-carboxylic acid] was tested, and the IC50 (GST-PPARG-LBD; [2]) was 4 nM, the EC50 [1, 3] was 50 nM and the activation at 10 µM [1] was 30%.
Work on `Cc1cccc([C@H](C)NC(=O)c2ccc3c(c2)c(C)c(C)n3Cc2ccc(-c3ccccc3C(=O)O)cc2)c1` [Example 295, (S)-4′-((2,3-Dimethyl-5-((1-(m-tolyl)ethyl)carbamoyl)-1H-indol-1-yl)methyl)-[1,1′-biphenyl]-2-carboxylic acid] yielded an IC50 (GST-PPARG-LBD; [4]) of 11 nM, an EC50 [1, 5] of 60 nM and an activation at 10 µM [1] of 10%.
Compound `Cc1c(C)n(Cc2ccc(-c3ccccc3C(=O)O)cc2)c2ccc(C(=O)N[C@@H](C)c3ccncc3Cl)cc12` [Example 148, (S)-4′-((5-((1-(3-chloropyridin-4-yl)ethyl)carbamoyl)-2,3-dimethyl-1H-indol-1-yl)methyl)-[1,1′-biphenyl]-2-carboxylic acid] has an IC50 (GST-PPARG-LBD; [2]) of 41 nM, an EC50 [1, 3] of 7540 nM and an activation at 10 µM [1] of 35%.
Work on `COc1ccccc1[C@H](C)NC(=O)c1ccc2c(c1)c(C)c(C)n2Cc1ccc(-c2ccccc2C(=O)O)cc1` [Example 175, (S)-4′-((5-((1-(2-methoxyphenyl)ethyl)carbamoyl)-2,3-dimethyl-1H-indol-1-yl)methyl)-[1,1′-biphenyl]-2-carboxylic acid] yielded an IC50 (GST-PPARG-LBD; [2]) of 16 nM, an EC50 [1, 3] of 360 nM and an activation at 10 µM [1] of 20%.
In the case of `Cc1c(C)n(Cc2ccc(-c3ccccc3C(=O)O)cc2)c2ccc(C(=O)N[C@@H](C)C3CCCCC3)cc12` [Example 212, (S)-4′-((5-((1-cyclohexylethyl)carbamoyl)-2,3-dimethyl-1H-indol-1-yl)methyl)-[1,1′-biphenyl]-2-carboxylic acid], the IC50 (GST-PPARG-LBD; [2]) is reported as 4 nM, the EC50 [1, 3] is reported as 209 nM and the activation at 10 µM [1] is reported as 20%.
`Cc1c(C)n(Cc2ccc(-c3ccccc3C(=O)O)cc2)c2ccc(C(=O)N[C@@H](C)c3cccc(C4CC4)n3)cc12` [Example 274, (S)-4′-((5-(1-(6-cyclopropylpyridin-2-yl)ethylcarbamoyl)-2,3-dimethyl-1H-indol-1-yl)methyl)biphenyl-2-carboxylic acid] showed an IC50 (GST-PPARG-LBD; [4]) of 19 nM, an EC50 [1, 5] of 159 nM and an activation at 10 µM [1] of 30%.
`Cc1c(C)n(Cc2ccc(-c3ccccc3C(=O)O)cc2)c2ccc(C(=O)N[C@H](C)c3ccc(C(F)(F)F)c(F)c3)cc12` [Example 234, (R)-4′-((5-((1-(3-fluoro-4-(trifluoromethyl)phenyl)ethyl)carbamoyl)-2,3-dimethyl-1H-indol-1-yl)methyl)-[1,1′-biphenyl]-2-carboxylic acid] showed an IC50 (GST-PPARG-LBD; [2]) of less than 1 nM, an EC50 [1, 3] of 40 nM and an activation at 10 µM [1] of 50%.
`Cc1c(C)n(Cc2ccc(-c3ccccc3C(=O)N(C)C)cc2)c2ccc(C(=O)N[C@@H](C)c3cccc(C(C)C)c3)cc12` [Example 312, (S)-1-((2′-(Dimethylcarbamoyl)-[1,1′-biphenyl]-4-yl)methyl)-N-(1-(3-isopropylphenyl)ethyl)-2,3-dimethyl-1H-indole-5-carboxamide] showed an IC50 (GST-PPARG-LBD; [4]) of 148 nM, an EC50 [1, 5] of 914 nM and an activation at 10 µM [1] of 10%.
Compound `Cc1c(C)n(Cc2ccc(-c3ccccc3C(=O)O)cc2)c2ccc(C(=O)N[C@@H](C)c3ccc(Cl)nc3)cc12` [Example 262, (S)-4′-((5-((1-(6-chloropyridin-3-yl)ethyl)carbamoyl)-2,3-dimethyl-1H-indol-1-yl)methyl)-[1,1′-biphenyl]-2-carboxylic acid] has an IC50 (GST-PPARG-LBD; [2]) of 144 nM, an EC50 [1, 3] of 4000 nM and an activation at 10 µM [1] of 35%.

Source: patent publication US8957093B2, “N-biphenylmethylindole modulators of PPARG” (The Scripps Research Institute, priority 2011, dated 2015)
